Experimental findings from PubChem BioAssay AID1259407 (Chemical Carcinogenesis Research Information System (CCRIS), 2018) are described below.

Molecules are shown by their SMILES. The source made the active and inactive calls. The rule behind the calls is not given here.

The test system of this series is CCRIS mutagenicity, Ames/micronucleus/aberration tests. Description: CCRIS mutagenicity studies. The conditions noted are these: Test System: AMES SALMONELLA TYPHIMURIUM
Setting [1] is: Strain/Indicator: TA98, Metabolic Activation: NONE, Method: PREINCUBATION
The mark [2] stands for this setting: Strain/Indicator: TA100, Metabolic Activation: NONE, Method: PREINCUBATION
The mark [3] stands for this setting: Strain/Indicator: TA98, Metabolic Activation: NONE, Method: STANDARD PLATE.
[4] abbreviates: Strain/Indicator: TA100, Metabolic Activation: NONE, Method: STANDARD PLATE.

Regarding `Nc1nc(-c2ccc([N+](=O)[O-])cc2)nc2c1ncn2[C@@H]1O[C@H](CO)[C@@H](O)[C@H]1O`, the mutagenic call is “active; positive” (Strain/Indicator: TA98(1,8-DNP), Metabolic Activation: NONE, Method: PREINCUBATION); “active; positive” (Strain/Indicator: TA98(NR), Metabolic Activation: NONE, Method: PREINCUBATION); “inactive; negative” (Strain/Indicator: TA98(NR), Metabolic Activation: RAT, LIVER, S-9, PCB, Method: PREINCUBATION); “active; positive” under setting [1]; “active; positive” (Strain/Indicator: TA98, Metabolic Activation: RAT, LIVER, S-9, PCB, Method: PREINCUBATION); “inactive; negative” (Strain/Indicator: TA100(1,8-DNP), Metabolic Activation: RAT, LIVER, S-9, PCB, Method: PREINCUBATION). In addition, the mutagenic call was “inactive; negative” (Strain/Indicator: TA100(NR), Metabolic Activation: RAT, LIVER, S-9, PCB, Method: PREINCUBATION); “active; positive” under setting [2]; “active; positive” (Strain/Indicator: TA100, Metabolic Activation: RAT, LIVER, S-9, PCB, Method: PREINCUBATION); “active; positive” (Strain/Indicator: YG1020, Metabolic Activation: NONE, Method: PREINCUBATION); “active; positive” (Strain/Indicator: YG1020, Metabolic Activation: RAT, LIVER, S-9, PCB, Method: PREINCUBATION); “active; positive” (Strain/Indicator: YG1021, Metabolic Activation: NONE, Method: PREINCUBATION). Besides, the mutagenic call was “active; positive” (Strain/Indicator: YG1021, Metabolic Activation: RAT, LIVER, S-9, PCB, Method: PREINCUBATION); “active; positive” (Strain/Indicator: YG1024, Metabolic Activation: NONE, Method: PREINCUBATION); “active; positive” (Strain/Indicator: YG1024, Metabolic Activation: RAT, LIVER, S-9, PCB, Method: PREINCUBATION); “active; positive” (Strain/Indicator: YG1025, Metabolic Activation: NONE, Method: PREINCUBATION); “active; positive” (Strain/Indicator: YG1025, Metabolic Activation: RAT, LIVER, S-9, PCB, Method: PREINCUBATION); “active; positive” (Strain/Indicator: YG1026, Metabolic Activation: NONE, Method: PREINCUBATION). Moreover, the mutagenic call by setting is: (Strain/Indicator: YG1026, Metabolic Activation: RAT, LIVER, S-9, PCB, Method: PREINCUBATION) “active; positive”; (Strain/Indicator: YG1029, Metabolic Activation: NONE, Method: PREINCUBATION) “active; positive”; (Strain/Indicator: YG1029, Metabolic Activation: RAT, LIVER, S-9, PCB, Method: PREINCUBATION) “active; positive”.
On to `N=C(N)c1ccc2cc(C(=N)N)[nH]c2c1`, for which the mutagenic call under setting [3] was “inactive; negative”; the mutagenic call (Strain/Indicator: TA98, Metabolic Activation: RAT, LIVER, S-9, PHENOBARBITAL, Method: STANDARD PLATE) is “inactive; negative”; the mutagenic call under setting [4] is “inactive; negative”; the mutagenic call (Strain/Indicator: TA100, Metabolic Activation: RAT, LIVER, S-9, PHENOBARBITAL, Method: STANDARD PLATE) is “inactive; negative”.
Regarding `c1ccc2cc3cc4ccccc4cc3cc2c1`, the mutagenic call is “inactive; negative” under setting [3]; “active; positive” (Strain/Indicator: TA98, Metabolic Activation: RAT, LIVER, S-9, 3-METHYLCHOLANTHRENE, Method: STANDARD PLATE); “active; positive” (Strain/Indicator: TA98, Metabolic Activation: RAT, LIVER, S-9, AROCLOR 1254, Method: STANDARD PLATE); “active; positive” (Strain/Indicator: TA100, Metabolic Activation: MOUSE, LIVER, S-9, 2,3,7,8-TETRACHLORODIBENZO-P-DIOXIN, Method: STANDARD PLATE); “active; positive” (Strain/Indicator: TA100, Metabolic Activation: MOUSE, LIVER, S-9, 3-METHYLCHOLANTHRENE, Method: STANDARD PLATE); “inactive; negative” under setting [4]. Besides, the mutagenic call (Strain/Indicator: TA100, Metabolic Activation: RAT, LIVER, S-9, 3-METHYLCHOLANTHRENE, Method: STANDARD PLATE) is “active; positive”; the mutagenic call (Strain/Indicator: TA100, Metabolic Activation: RAT, LIVER, S-9, AROCLOR 1254, Method: STANDARD PLATE) is “active; positive”; the mutagenic call (Strain/Indicator: TA1535, Metabolic Activation: NONE, Method: STANDARD PLATE) was “inactive; negative”; the mutagenic call (Strain/Indicator: TA1535, Metabolic Activation: RAT, LIVER, S-9, 3-METHYLCHOLANTHRENE, Method: STANDARD PLATE) is “inactive; negative”; the mutagenic call (Strain/Indicator: TA1535, Metabolic Activation: RAT, LIVER, S-9, AROCLOR 1254, Method: STANDARD PLATE) was “inactive; negative”; the mutagenic call (Strain/Indicator: TA1537, Metabolic Activation: NONE, Method: STANDARD PLATE) was “inactive; negative”. Besides, the mutagenic call reads like this: (Strain/Indicator: TA1537, Metabolic Activation: RAT, LIVER, S-9, 3-METHYLCHOLANTHRENE, Method: STANDARD PLATE) “active; positive”; (Strain/Indicator: TA1537, Metabolic Activation: RAT, LIVER, S-9, AROCLOR 1254, Method: STANDARD PLATE) “active; positive”; (Strain/Indicator: TA1538, Metabolic Activation: NONE, Method: STANDARD PLATE) “inactive; negative”; (Strain/Indicator: TA1538, Metabolic Activation: RAT, LIVER, S-9, 3-METHYLCHOLANTHRENE, Method: STANDARD PLATE) “active; positive”; (Strain/Indicator: TA1538, Metabolic Activation: RAT, LIVER, S-9, AROCLOR 1254, Method: STANDARD PLATE) “active; positive”.
`COc1ccc(/C=N/n2nnc3c([nH]c4ccccc43)c2=O)cc1`: the mutagenic call (Strain/Indicator: TA97, Metabolic Activation: NONE, Method: PREINCUBATION) is “active; positive”; the mutagenic call (Strain/Indicator: TA97, Metabolic Activation: RAT, LIVER, S-9, AROCLOR 1254 (10%), Method: PREINCUBATION) was “active; positive”; the mutagenic call under setting [1] is “active; positive”; the mutagenic call (Strain/Indicator: TA98, Metabolic Activation: RAT, LIVER, S-9, AROCLOR 1254 (10%), Method: PREINCUBATION) is “active; positive”; the mutagenic call under setting [2] is “active; positive”; the mutagenic call (Strain/Indicator: TA100, Metabolic Activation: RAT, LIVER, S-9, AROCLOR 1254 (10%), Method: PREINCUBATION) is “active; positive”. Also, the mutagenic call (Strain/Indicator: TA102, Metabolic Activation: NONE, Method: PREINCUBATION) is “inactive; negative” and the mutagenic call (Strain/Indicator: TA102, Metabolic Activation: RAT, LIVER, S-9, AROCLOR 1254 (10%), Method: PREINCUBATION) is “inactive; negative”.
For the compound `CCOc1ccc(N(O)C(=O)CC(C)O)cc1` (configuration not stated), the mutagenic call runs as follows: (Strain/Indicator: TA100, Metabolic Activation: HAMSTER, LIVER, S-9, KANECHLOR 400 (WITHOUT NADPH GENERATING SYSTEM), Method: PREINCUBATION) “active; positive”; under setting [2], “inactive; negative”.
